The test system of assay [1] is rabbits eye. Description: Topical antiinflammatory effect, anterior chamber paracentesis inflammation model of the rabbits eye. The assay is classed as in vivo, female white rabbits. The note with it: 0.1% ophthalmic solution; for % Inhibition: inhibition of increase in protein of secondary aqueous humor vs control; for Increase in protein: secondary minus primary aqueous humor (1.5 hours apart), 10 μl at 2, 1 and 0.5 hour before paracentesis, control 25.5. How it is done: The antiinflammatory effect of the compound according to the present invention was investigated in the anterior chamber paracentesis inflammation model of the rabbits eye.
Method: Using female white rabbits, a 0.1% ophthalmic solution of L-ascorbyl tocopheryl phosphate sodium and, as a control, physiological saline were instilled into the bilateral eyes of rabbits in volumes of 10 μl each at 2, 1 and 0.5 hour before peracentesis and using a 27-gauge needle about 200 μl of anterior chamber aqueous humor was collected from each eye (primary aqueous humor). Then, after an interval of 1.5 hours, the aqueous humor was collected again in the same manner (secondary aqueous humor). The protein content of each aqueous sample was determined by the method of Lowry and the increases in the amount of protein (protein content of secondary aqueous humor-protein content of primary aqueous humor) in the respective groups were compared to evaluate the antiinflammatory effect of each test substance.

In assay [2] the test system is back skin of Hartly guinea pigs. Description: Inhibitory effect on ultraviolet-induced erythema. The assay is classed as in vivo. Set-up: key to Degree of erythema, After 1 hour, Right / Degree of erythema, After 1 hour, Left / Degree of erythema, After 2 hours, Right / Degree of erythema, After 2 hours, Left: 0: No erythema; 1: Slight erythema; 2: Erythema without a distinct margin; 3: Erythema with a distinct margin. As for the experimental part:
Method: The back hairs of Hartly guinea pigs were clipped with an electric clipper and shaved with an electric razor. Then, a cloth with two holes 11 mm in diameter and 4 cm apart was appliedto the back for positioning and a 1 (w/v) % aqueous solution of δ-EPC (adjusted to pH 6.0) and, as control, water were applied 3 times in 100 μl portions each at 1-hour intervals around the sites of said holes over an area 4 cm in diameter. One hour after the final application, said cloth with small holes was applied again and the exposed skin areas was irradiated with ultraviolet rays at 1700 luxes for 360 seconds. Then, after 1 and 2 hours, respectively, the back was grossly examined for erythema. […]
Erythema without a distinct margin
Erythema with a distinct margin

Setting [3] is: 1 (w/v) % aqueous solution pH 6.0, 3 x 100 μl, one animal per line, control 2, 2, 2, 2.
Where [4] appears, read: 1 (w/v) % aqueous solution pH 6.0, 3 x 100 μl, one animal per line, control 2, 3, 2, 2.

Broadly, the % Inhibition is the relative decrease from the control value, in per cent.

Several values for one entry are separate records, joined by “and”; a condition that tells them apart may be missing. Identical values can stand only once.

With `Cc1c(OP(=O)(O)OC2=C(O)[C@@H]([C@@H](O)CO)OC2=O)cc2c(c1C)OC(C)(CCCC(C)CCCC(C)CCCC(C)C)CC2` (mixture of isomers) [γ-EPC, L-Ascorbyl DL-γ-tocopheryl phosphate sodium], in assay [1], the “% Inhibition” value is listed as 36.5% and the Increase in protein is reported as 16.2.
The like results for `C[C@@H]1C[C@H]2[C@@H]3CCC4=CC(=O)C=C[C@]4(C)[C@@]3(F)[C@@H](O)C[C@]2(C)[C@@]1(O)C(=O)CO` [DEX, Dexamethasone, reference compound] were, in that order, 18.4% and 20.8.
Take `Cc1cc(OP(=O)(O)OC2=C(O)[C@@H]([C@@H](O)CO)OC2=O)c(C)c2c1OC(C)(CCCC(C)CCCC(C)CCCC(C)C)CC2` (mixture of isomers) [β-EPC, L-Ascorbyl DL-β-tocopheryl phosphate sodium]: in assay [1], the “% Inhibition” value was found to be 37.3% and the Increase in protein is recorded as 16.0.
`Cc1cc(OP(=O)(O)OC2=C(O)[C@@H]([C@@H](O)CO)OC2=O)cc2c1O[C@](C)(CCC[C@H](C)CCC[C@H](C)CCCC(C)C)CC2` [δ-EPC, L-Ascorbyl D-δ-tocopheryl phosphate sodium]: in assay [1], the “% Inhibition” value is 40.0% and the Increase in protein is given as 15.3. For the same compound, in assay [2] (setting [3]), the “Degree of erythema, After 1 hour, Left” value was 0 and 1; the “Degree of erythema, After 2 hours, Left” value is 0 and 1. For the same compound, in assay [2] (setting [4]), the “Degree of erythema, After 1 hour, Right” value stood at 1 and the “Degree of erythema, After 2 hours, Right” value came to 1. Further, the “antiinflammatory effect compared with the control group” value in assay [2] (UV-induced erythema, guinea pigs) is given as “significant antiinflammatory effect”.

These data come from patent US4914197A, “Novel phosphoric diesters” (Senju Pharmaceutical Co., Ltd., priority 1986, dated 1990).
